Measured values taken from patent US11905230B2, “Phenoxyacetic acid derivatives, preparation method thereof and use thereof as medicament” (CHINA PHARMACEUTICAL UNIVERSITY, priority 2017, dated 2024).

Experiments:
[1] = Evaluation of hepatotoxicity: serum ALT, AST and TBIL after 4 weeks of dosing; type: in vivo; details: for ALT (IU/L) / AST (IU/L) / TBIL (IU/L): serum, once a day for consecutive 4 weeks, x ± SD, n = 6
Protocol: Experimental example 3 Evaluation of hepatotoxicity of the compounds of the present invention:
The test compounds were administered once a day for consecutive 4 weeks, blood was taken, and the contents of alanine aminotransferase (ALT), aspartate aminotransferase (AST), and total bilirubin (TBIL) were measured.

normal mice = experiment: Oral glucose tolerance test (OGTT) in normal mice; type: in vivo, Kunming mice; details: for effect on oral glucose tolerance in mice (in words): OGTT in normal mice, 20 mg/kg; for blood glucose level at 15 min / blood glucose level at 0 min / blood glucose level at 30 min / blood glucose level at 60 min / blood glucose level at 120 min: OGTT, 20 mg/kg by gavage, n = 8, in mmol/L (unit assumed); for blood glucose level at 15 min: 15 min after glucose load; for blood glucose level at 0 min: 30 min after dosing, before glucose load; for blood glucose level at 30 min: 30 min after glucose load; for blood glucose level at 60 min: 60 min after glucose load; for blood glucose level at 120 min: 120 min after glucose load
Protocol: Experimental example 2 In vivo hypoglycemic activity of the compounds of the present invention can be determined by using an assay system as described below:
The mice were fasted for 12 hours before experiment and water was taken freely, each group was administrated by gavage, blood was taken from the tail, and the blood glucose level was measured (recorded as −30 min).

PPARγ = PPARγ (Homo sapiens (Human), UniProt P37231); experiment: selective experiment of PPARγ agonism; type: cell-based; details: selectivity experiment; read-out: EC K (EC50) of PPARγ agonism
hGPR40 receptor = hGPR40 receptor (Homo sapiens (Human), UniProt O14842); experiment: agonistic activity on hGPR40-CHO stably transfected cells (Fluo-4 / FLIPR); type: cell-based; details: for activation at 0.1 µM: 100 nM, relative to linoleic acid well; for EC50: mean ± SD of three determinations
Protocol: Experimental example 1 The agonistic activity of the compounds of the present invention on hGPR40-CHO stably transfected cells
The present invention used the following method to determine the GPR40 agonistic activity of the compounds of the invention:
hGPR40-CHO stably transfected cells were seeded into a 96-well plate at a density of 3×10^4/well, and incubated overnight in a 37° C., 5% CO2 cell incubator; the medium was discarded, 100 μl of HBSS was added to each well, and 100 μl of Fluo-4 dye solution containing Probenecid was added and incubated at 37° C. for 90 min. After the incubation, the Fluo-4 dye solution was sucked out, 100 μl of HBSS buffer was added, and the dye was washed away; 100 μl of HBSS containing Probenecid was added to each well, and incubated at 37° C. for 10 min; different concentrations of drugs were added to each well of the 96-well plate and FLIPR (Molecular Devices) was used for readings according to the parameter setting table. The experimental results were analyzed.

GPR120 = GPR120 (Homo sapiens (Human), UniProt Q5NUL3); experiment: selective experiment of GPR120 agonism; type: cell-based; details: selectivity experiment; read-out: EC K (EC50) of GPR120 agonism
Chain of GPR120 (Q5NUL3 whole entry, species assumed): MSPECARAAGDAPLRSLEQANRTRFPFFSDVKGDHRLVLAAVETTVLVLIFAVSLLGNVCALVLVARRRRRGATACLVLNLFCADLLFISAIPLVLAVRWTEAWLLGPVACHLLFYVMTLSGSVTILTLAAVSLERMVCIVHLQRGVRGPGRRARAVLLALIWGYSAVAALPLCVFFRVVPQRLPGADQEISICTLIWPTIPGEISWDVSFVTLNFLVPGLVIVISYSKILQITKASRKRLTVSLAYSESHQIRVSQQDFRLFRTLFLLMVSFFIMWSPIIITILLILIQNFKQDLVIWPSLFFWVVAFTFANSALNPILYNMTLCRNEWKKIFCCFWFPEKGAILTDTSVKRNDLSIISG

Chain of hGPR40 receptor (O14842 whole entry): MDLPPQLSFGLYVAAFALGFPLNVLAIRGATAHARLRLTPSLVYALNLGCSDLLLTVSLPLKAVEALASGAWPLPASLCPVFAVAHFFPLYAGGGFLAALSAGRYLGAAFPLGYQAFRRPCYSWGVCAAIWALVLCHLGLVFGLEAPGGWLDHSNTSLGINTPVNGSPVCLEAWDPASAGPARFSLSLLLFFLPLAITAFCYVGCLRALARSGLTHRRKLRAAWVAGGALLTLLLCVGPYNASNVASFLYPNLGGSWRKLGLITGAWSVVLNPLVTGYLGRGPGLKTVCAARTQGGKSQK
Chain of PPARγ (P37231 whole entry, species assumed): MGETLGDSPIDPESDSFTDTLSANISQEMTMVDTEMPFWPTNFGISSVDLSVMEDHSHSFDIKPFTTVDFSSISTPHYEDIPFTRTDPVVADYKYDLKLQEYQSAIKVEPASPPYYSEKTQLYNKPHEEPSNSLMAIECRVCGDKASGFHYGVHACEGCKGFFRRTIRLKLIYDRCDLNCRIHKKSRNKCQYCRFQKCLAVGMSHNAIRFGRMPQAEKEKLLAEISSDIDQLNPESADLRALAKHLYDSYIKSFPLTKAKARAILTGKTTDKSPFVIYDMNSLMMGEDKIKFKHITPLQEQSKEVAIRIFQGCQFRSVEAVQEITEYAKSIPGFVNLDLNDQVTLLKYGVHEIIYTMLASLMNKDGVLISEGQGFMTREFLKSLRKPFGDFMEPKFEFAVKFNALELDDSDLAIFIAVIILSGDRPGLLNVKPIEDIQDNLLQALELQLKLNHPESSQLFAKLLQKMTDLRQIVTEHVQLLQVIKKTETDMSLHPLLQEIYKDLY

Compound	activation at 0.1 µM (hGPR40 receptor) [%]	melting point [°C]	also measured
Cc1ccccc1-c1cccc(CNc2ccc(OCC(=O)O)c(F)c2)c1 [Compound I-3, 2-(4-((2′-methyl-[1,1′-biphenyl]-3-methylene)amino)-2-fluorophenoxy)acetic acid]	87		AST, ALT and TBIL compared with STZ (blank) group (in words) ([1]; 4 weeks of dosing): equivalent to the blank group; ALT (IU/L) [1]: 51.23 ± 5.6 IU/L; AST (IU/L) [1]: 103.27 ± 9.98 IU/L; TBIL (IU/L) [1]: 2.55 ± 0.4 IU/L; effect on oral glucose tolerance in mice (in words) (normal mice): significantly improve oral glucose tolerance; blood glucose level at 15 min (normal mice): 7.13 ± 0.29; blood glucose level at 0 min (normal mice): 4.61 ± 0.63; blood glucose level at 30 min (normal mice): 6.94 ± 0.38; blood glucose level at 60 min (normal mice): 5.06 ± 0.23; blood glucose level at 120 min (normal mice): 4.38 ± 0.29; EC50 (PPARγ): 83 µM; EC50 (hGPR40 receptor): 4.8 ± 3.5 nM; EC50 (GPR120): 54 µM
N#Cc1ccccc1-c1cccc(CNc2ccc(OCC(=O)O)c(F)c2)c1 [Compound I-7, 2-(4-((2′-Nitrile-[1,1′-biphenyl]-3-methylene)amino)-2-fluorophenoxy)acetic acid]	45	137 to 140	
Cc1noc(C)c1-c1cccc(CNc2ccc(OCC(=O)O)c(F)c2)c1 [Compound I-14, 2-(4-((3-(3,5-dimethylisoxazol-4-yl)benzyl)amino)-2-fluorophenoxy)acetic acid]	54	72 to 73	
COc1cc(C)c(-c2cccc(CNc3ccc(OCC(=O)O)cc3)c2)c(C)c1 [Compound I-18, 2-(4-((4′-methoxy-2′,6′-dimethyl-[1,1′-biphenyl]-3-methylene)amino)phenoxy)acetic acid]	65	131 to 134	
COc1ccc(-c2cccc(CNc3ccc(OCC(=O)O)cc3)c2)c(C)c1 [Compound I-21]	75	121 to 124	
Cc1cc(OC(C)C)ccc1-c1cccc(CNc2ccc(OCC(=O)O)c(F)c2)c1 [Compound I-22]	65	134 to 137	
Cc1cc(OC(C)C)ccc1-c1cccc(CNc2ccc(OCC(=O)O)cc2)c1 [Compound I-23]	62	132 to 135	
O=C(O)COc1ccc(NCc2cccc(-c3ccccc3Cl)c2)cc1 [Compound I-24, 2-(4-((2′-chloro-[1,1′-biphenyl]-3-methylene)amino)phenoxy)acetic acid]	80	124 to 126	ALT (IU/L) [1]: 52.68 ± 5.7 IU/L; AST (IU/L) [1]: 116.78 ± 12.4 IU/L; TBIL (IU/L) [1]: 2.56 ± 0.2 IU/L; effect on oral glucose tolerance in mice (in words) (normal mice): significantly improve oral glucose tolerance; blood glucose level at 15 min (normal mice): 9.22 ± 0.57; blood glucose level at 0 min (normal mice): 4.39 ± 0.34; blood glucose level at 30 min (normal mice): 8.04 ± 0.49; blood glucose level at 60 min (normal mice): 5.29 ± 0.34; blood glucose level at 120 min (normal mice): 4.33 ± 0.33; EC50 (hGPR40 receptor): 18.6 ± 2.7 nM
Cc1ccccc1-c1cccc(CNc2ccc(OCC(=O)O)cc2)c1 [Compound I-25, 2-(4-((2′-methyl-[1,1′-biphenyl]-3-methylene)amino)phenoxy)acetic acid]	82	101 to 104	ALT (IU/L) [1]: 51.78 ± 4.5 IU/L; AST (IU/L) [1]: 116.54 ± 8.9 IU/L; TBIL (IU/L) [1]: 2.69 ± 0.4 IU/L; effect on oral glucose tolerance in mice (in words) (normal mice): significantly improve oral glucose tolerance; blood glucose level at 15 min (normal mice): 8.47 ± 0.45; blood glucose level at 0 min (normal mice): 4.48 ± 0.39; blood glucose level at 30 min (normal mice): 7.23 ± 0.39; blood glucose level at 60 min (normal mice): 5.11 ± 0.29; blood glucose level at 120 min (normal mice): 4.29 ± 0.39; EC50 (hGPR40 receptor): 17.3 ± 3.3 nM
O=C(O)COc1ccc(NCc2cccc(-c3ccccc3F)c2)cc1 [Compound I-26, 2-(4-((2′-fluoro-[1,1′-biphenyl]-3-methylene)amino)phenoxy)acetic acid]	61	111 to 112	

Continued, in another order:

activation at 0.1 µM (hGPR40 receptor) [%]	melting point [°C]	Compound	also measured
69	111 to 114	Cc1ccc(-c2cccc(CNc3ccc(OCC(=O)O)cc3)c2)c(Cl)c1 [Compound I-27, 2-(4-((2′-chloro-4′-methyl-[1,1′-biphenyl]-3-methylene)amino)phenoxy)acetic acid]	
46	107 to 110	O=C(O)COc1ccc(NCc2cccc(-c3ccccc3OC(F)(F)F)c2)cc1 [Compound I-32, 2-(4-((2′-trifluoromethoxy-[1,1′-biphenyl]-3-methylene)amino)phenoxy)acetic acid]	
50	111 to 113	O=C(O)COc1ccc(NCc2cccc(-c3ccccc3OC(F)(F)F)c2)cc1F [Compound I-33]	
64	127 to 130	Cc1cc(OC(F)(F)F)cc(C)c1-c1cccc(CNc2ccc(OCC(=O)O)c(F)c2)c1 [Compound I-34, 2-(4-((4′-trifluoromethoxy-2′,6′-dimethyl-[1,1′-biphenyl]-3-methylene)amino)-2-fluorophenoxy)acetic acid]	
78	123 to 125	Cc1cc(OC(F)(F)F)ccc1-c1cccc(CNc2ccc(OCC(=O)O)c(F)c2)c1 [Compound I-35, 2-(4-((4′-trifluoromethoxy-2′-methyl-[1,1′-biphenyl]-3-methylene)amino)2-fluorophenoxy)acetic acid]	
56	137 to 139	CCOCCOc1cc(C)c(-c2cccc(CNc3ccc(OCC(=O)O)c(F)c3)c2)c(C)c1 [Compound I-36, 2-(2-fluoro-4-((4′-(2-ethoxyethoxy)-2′,6′-dimethyl-[1,1′-biphenyl]-3-methylene)amino)phenoxy)acetic acid]	
50	133 to 136	CCOCCOc1cc(C)c(-c2cccc(CNc3ccc(OCC(=O)O)cc3)c2)c(C)c1 [Compound I-37, 2-(4-((4′-(2-ethoxyethoxy)-2′,6′-dimethyl-[1,1′-biphenyl]-3-methylene)amino)phenoxy)acetic acid]	
64	136 to 138	COCOc1cc(C)c(-c2cccc(CNc3ccc(OCC(=O)O)c(F)c3)c2)c(C)c1 [Compound I-38, 2-(2-fluoro-4-((4′-(2-methoxymethoxy)-2′,6′-dimethyl-[1,1′-biphenyl]-3-methylene)amino)phenoxy)acetic acid]	
60	132 to 134	COCOc1cc(C)c(-c2cccc(CNc3ccc(OCC(=O)O)cc3)c2)c(C)c1 [Compound I-39, 2-(4-((4′-(2-methoxymethoxy)-2′,6′-dimethyl-[1,1′-biphenyl]-3-methylene)amino)phenoxy)acetic acid]	
63	136 to 139	CCOCOc1cc(C)c(-c2cccc(CNc3ccc(OCC(=O)O)c(F)c3)c2)c(C)c1 [Compound I-40, 2-(2-fluoro-4-((4′-(2-ethoxymethoxy)-2′,6′-dimethyl-[1,1′-biphenyl]-3-methylene)amino)phenoxy)acetic acid]	
59	128 to 131	CCOCOc1cc(C)c(-c2cccc(CNc3ccc(OCC(=O)O)cc3)c2)c(C)c1 [Compound I-41, 2-(4-((4′-(2-ethoxymethoxy)-2′,6′-dimethyl-[1,1′-biphenyl]-3-methylene)amino)phenoxy)acetic acid]	
